The values below come from patent publication US12492188B2, “1H-benzo[D]imidazole derivatives as TLR9 inhibitors for the treatment of fibrosis” (BRISTOL-MYERS SQUIBB COMPANY, priority 2020, dated 2025).

The IC50 is the concentration that gives 50% inhibition.

Molecules are shown by their SMILES. Read-outs that look alike come from different tables or passages of the source.

Holding throughout (assay type): cell-based
For one experiment, the target named is T1, human TLR9 (Homo sapiens, UniProt Q9NR96).
T1 construct: host or cells: HEK-Blue cells (HEK293-derived reporter line)
T1 sequence (Q9NR96 26-1032): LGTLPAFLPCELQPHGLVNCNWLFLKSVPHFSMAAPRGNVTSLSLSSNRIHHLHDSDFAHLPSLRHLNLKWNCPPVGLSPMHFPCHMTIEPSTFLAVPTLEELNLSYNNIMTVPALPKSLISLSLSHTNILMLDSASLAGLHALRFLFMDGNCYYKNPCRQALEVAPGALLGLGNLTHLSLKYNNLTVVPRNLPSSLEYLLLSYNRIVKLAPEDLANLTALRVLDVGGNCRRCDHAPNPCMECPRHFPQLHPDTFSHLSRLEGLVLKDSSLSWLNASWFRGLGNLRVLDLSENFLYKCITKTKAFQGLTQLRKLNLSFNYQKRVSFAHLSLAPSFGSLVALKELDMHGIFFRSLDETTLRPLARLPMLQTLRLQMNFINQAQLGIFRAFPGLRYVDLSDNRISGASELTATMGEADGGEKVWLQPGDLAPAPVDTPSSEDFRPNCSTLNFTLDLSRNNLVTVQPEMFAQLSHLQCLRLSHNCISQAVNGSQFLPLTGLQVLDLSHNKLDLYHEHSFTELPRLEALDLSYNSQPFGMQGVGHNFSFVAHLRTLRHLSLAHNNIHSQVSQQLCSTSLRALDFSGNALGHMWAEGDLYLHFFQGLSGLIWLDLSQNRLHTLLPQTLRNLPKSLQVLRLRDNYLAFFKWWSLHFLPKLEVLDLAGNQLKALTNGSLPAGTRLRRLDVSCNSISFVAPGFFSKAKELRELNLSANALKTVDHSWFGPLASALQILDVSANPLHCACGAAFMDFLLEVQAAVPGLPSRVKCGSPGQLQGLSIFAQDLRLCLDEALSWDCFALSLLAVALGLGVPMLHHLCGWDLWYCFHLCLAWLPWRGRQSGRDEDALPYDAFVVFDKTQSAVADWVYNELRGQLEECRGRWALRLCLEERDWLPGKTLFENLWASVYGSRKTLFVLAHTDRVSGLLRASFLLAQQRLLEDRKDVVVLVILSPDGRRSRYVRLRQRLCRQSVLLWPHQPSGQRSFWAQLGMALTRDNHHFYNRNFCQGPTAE
Kind of experiment: TLR9 inhibition reporter assay (HEK-Blue cells, secreted embryonic alkaline phosphatase reporter). A digest of the protocol:
(§1)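 Inhibitors are tested in dose response (0.05 nM–50 μM) on HEK-Blue reporter cells expressing human TLR7, TLR8 or TLR9. After 30 min at room temperature, each line is stimulated with its own agonist (gardiquimod 7.5 μM, R848 15.9 μM or ODN2006 5 nM, final) and SEAP is measured 22 h later.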
For orientation: A reporter such as luciferase makes a cellular process visible.

For the next experiment, the target named is T2, human TLR7 (Homo sapiens, UniProt Q9NYK1).
T2 construct: host or cells: HEK-Blue cells (HEK293-derived reporter line)
T2 sequence (Q9NYK1 27-1049): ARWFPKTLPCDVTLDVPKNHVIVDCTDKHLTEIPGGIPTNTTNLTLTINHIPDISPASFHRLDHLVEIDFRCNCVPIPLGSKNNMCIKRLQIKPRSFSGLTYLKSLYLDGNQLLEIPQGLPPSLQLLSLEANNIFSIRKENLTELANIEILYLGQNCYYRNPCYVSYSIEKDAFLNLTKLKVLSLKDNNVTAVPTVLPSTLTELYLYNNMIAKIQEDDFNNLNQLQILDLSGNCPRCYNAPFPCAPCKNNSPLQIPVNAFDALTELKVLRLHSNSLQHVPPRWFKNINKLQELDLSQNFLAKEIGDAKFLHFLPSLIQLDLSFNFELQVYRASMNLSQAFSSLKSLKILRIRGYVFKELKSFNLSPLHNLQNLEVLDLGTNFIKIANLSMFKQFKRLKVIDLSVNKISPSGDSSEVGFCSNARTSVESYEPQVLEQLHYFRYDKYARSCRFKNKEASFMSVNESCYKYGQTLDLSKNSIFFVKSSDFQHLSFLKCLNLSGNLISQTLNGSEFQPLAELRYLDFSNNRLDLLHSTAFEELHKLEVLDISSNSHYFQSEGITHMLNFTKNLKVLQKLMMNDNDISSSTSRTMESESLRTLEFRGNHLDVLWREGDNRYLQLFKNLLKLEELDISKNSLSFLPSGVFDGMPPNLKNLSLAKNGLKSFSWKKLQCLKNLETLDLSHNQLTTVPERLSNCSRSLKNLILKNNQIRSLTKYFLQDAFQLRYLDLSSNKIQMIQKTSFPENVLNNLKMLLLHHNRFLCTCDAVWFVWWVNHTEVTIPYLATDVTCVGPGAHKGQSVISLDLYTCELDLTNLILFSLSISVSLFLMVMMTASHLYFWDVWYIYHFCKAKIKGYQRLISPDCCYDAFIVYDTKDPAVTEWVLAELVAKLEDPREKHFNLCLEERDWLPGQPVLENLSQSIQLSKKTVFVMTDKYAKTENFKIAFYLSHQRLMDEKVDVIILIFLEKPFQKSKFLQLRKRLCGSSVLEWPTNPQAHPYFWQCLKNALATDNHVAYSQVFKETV
As to the kind of experiment: TLR7 inhibition reporter assay (HEK-Blue cells, secreted embryonic alkaline phosphatase reporter). The note with it: HEK-Blue cells overexpressing human TLR7, stimulated with gardiquimod 7.5 μM; read-out: TLR 7 IC50. The method in brief:
as §1

The next experiment addresses T3, human TLR8 (Homo sapiens, UniProt Q9NR97).
T3 construct: host or cells: HEK-Blue cells (HEK293-derived reporter line)
T3 sequence (Q9NR97 27-1041): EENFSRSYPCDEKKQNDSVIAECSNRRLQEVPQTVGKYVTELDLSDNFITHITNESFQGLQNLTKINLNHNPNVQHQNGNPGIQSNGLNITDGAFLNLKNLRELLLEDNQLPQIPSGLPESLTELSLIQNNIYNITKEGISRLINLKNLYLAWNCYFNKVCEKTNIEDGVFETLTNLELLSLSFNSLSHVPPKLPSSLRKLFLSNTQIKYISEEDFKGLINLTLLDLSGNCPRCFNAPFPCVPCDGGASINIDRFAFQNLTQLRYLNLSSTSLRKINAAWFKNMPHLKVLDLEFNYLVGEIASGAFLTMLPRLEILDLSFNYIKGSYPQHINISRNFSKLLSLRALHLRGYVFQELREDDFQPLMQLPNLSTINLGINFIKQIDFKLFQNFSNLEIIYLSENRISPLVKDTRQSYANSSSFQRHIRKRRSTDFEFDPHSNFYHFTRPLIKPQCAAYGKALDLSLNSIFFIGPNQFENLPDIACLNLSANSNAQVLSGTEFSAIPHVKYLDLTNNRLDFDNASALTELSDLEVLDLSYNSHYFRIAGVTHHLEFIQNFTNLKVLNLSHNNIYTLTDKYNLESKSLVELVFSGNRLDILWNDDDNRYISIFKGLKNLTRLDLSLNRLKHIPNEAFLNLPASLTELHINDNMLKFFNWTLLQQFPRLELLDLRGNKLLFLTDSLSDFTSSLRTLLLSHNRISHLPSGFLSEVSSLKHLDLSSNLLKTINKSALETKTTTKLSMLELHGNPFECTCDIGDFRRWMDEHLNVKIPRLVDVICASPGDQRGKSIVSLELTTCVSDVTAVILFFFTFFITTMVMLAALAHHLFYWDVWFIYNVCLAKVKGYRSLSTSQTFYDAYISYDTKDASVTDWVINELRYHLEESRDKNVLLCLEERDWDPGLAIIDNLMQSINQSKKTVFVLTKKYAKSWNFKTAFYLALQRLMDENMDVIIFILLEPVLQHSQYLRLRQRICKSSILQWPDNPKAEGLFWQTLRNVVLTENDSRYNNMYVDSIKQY
Kind of experiment: TLR8 inhibition reporter assay (HEK-Blue cells, secreted embryonic alkaline phosphatase reporter). The note with it: HEK-Blue cells overexpressing human TLR8, stimulated with R848 15.9 μM; read-out: TLR 8 IC50. A digest of the protocol: as §1

The mark [1] stands for this setting: HEK-Blue cells overexpressing human TLR9, stimulated with ODN2006 5 nM, 22 hour incubation, reporter readout.
Where [2] appears, read: HEK-Blue cells overexpressing human TLR9, stimulated with ODN2006 5 nM, read-out: TLR 9 IC50.

`COc1ccc(-c2nc3c(C)cc(C4CC5CCC(C4)N5C4CCN(CC(C)C)CC4)cc3n2C)cc1OC` (stereo not shown) [Example 50, 2-(3,4-dimethoxyphenyl)-6-(8-(1-isobutylpiperidin-4-yl)-8-azabicyclo[3.2.1]octan-3-yl)-1,4-dimethyl-1H-benzo[d]imidazole]: the half-maximal inhibitory concentration (IC50) against human TLR9 (setting [1]) is 23 nM; on human TLR9 (setting [2]), 23 nM; on human TLR7, 2900 nM; at human TLR8, over 50000 nM.
Consider `COCCN1C2CCC1CC(N1CCC(c3cc(C)c4nc(-c5ccc(OC)c(OC)c5)n(C)c4c3)CC1)C2` (single isomer, unassigned) [Example 169, 2-(3,4-dimethoxyphenyl)-6-(1-(8-(2-methoxyethyl)-8-azabicyclo[3.2.1]octan-3-yl)piperidin-4-yl)-1,4-dimethyl-1H-benzo[d]imidazole], for which the IC50 against human TLR9 came out at 200 nM; at human TLR9 (setting [2]) it was 204 nM; at human TLR7 it was 10500 nM; at human TLR8, 23700 nM.
As for `COc1ccc(-c2nc3cc(C4CCN(C5CCN(C(C)C)CC5)CC4)c(C(F)(F)F)cc3[nH]2)cc1OC` [Example 10, 2-(3,4-dimethoxyphenyl)-5-(1′-isopropyl-[1,4′-bipiperidin]-4-yl)-6-(trifluoromethyl)-1H-benzo[d]imidazole], the IC50 against human TLR9 (setting [1]) is 240 nM; at human TLR9 (setting [2]), 244 nM; at human TLR7 it was over 50000 nM; on human TLR8 it was over 50000 nM.
As to `CC(C)CN1CCCC(N2CCC(c3cc(F)c4nc(-c5ccc(S(C)(=O)=O)cc5)n(C)c4c3)CC2)CC1` (stereo not shown) [Example 296, 4-fluoro-6-(1-(1-isobutylazepan-4-yl)piperidin-4-yl)-1-methyl-2-(4-(methylsulfonyl)phenyl)-1H-benzo[d]imidazole], the IC50 is 22 nM at human TLR9 (setting [2]), 22 nM against human TLR9 (HEK-Blue human TLR9 reporter cells), 14100 nM on human TLR7 and over 50000 nM at human TLR8.
For `Cn1c(-c2ccc(S(C)(=O)=O)cc2)nc2cc(F)c(C3CCN(C4CCN(C5CC5)CC4)CC3)cc21` [Example 222, 6-(1′-cyclopropyl-[1,4′-bipiperidin]-4-yl)-5-fluoro-1-methyl-2-(4-(methylsulfonyl)phenyl)-1H-benzo[d]imidazole], the IC50 on human TLR9 was 130 nM; at human TLR9 (setting [2]), 133 nM; on human TLR7, 35600 nM; on human TLR8, over 50000 nM.
As for `Cn1c(-c2ccc(S(C)(=O)=O)cc2)nc2cc(F)c(C3CCN(C4CC5CCC(C4)N5C4CCOCC4)CC3)cc21` (stereo not shown) [Example 236, 5-fluoro-1-methyl-2-(4-(methylsulfonyl)phenyl)-6-(1-(8-(tetrahydro-2H-pyran-4-yl)-8-azabicyclo[3.2.1]octan-3-yl)piperidin-4-yl)-1H-benzo[d]imidazole], the IC50 against human TLR9 was 99 nM; on human TLR9 (setting [2]) it was 99 nM; at human TLR7, over 50000 nM; on human TLR8, over 50000 nM.
With `CC(C)N1C2CCC1CC(N1CCC(c3cc(F)c4c(c3)nc(-c3ccc(S(C)(=O)=O)cc3)n4C)CC1)C2` (single isomer, unassigned) [Example 92, 7-fluoro-5-(1-(8-isopropyl-8-azabicyclo[3.2.1]octan-3-yl)piperidin-4-yl)-1-methyl-2-(4-(methylsulfonyl)phenyl)-1H-benzo[d]imidazole], the IC50 at human TLR9 (setting [1]) is 110 nM; on human TLR9 (setting [2]) it was 105 nM; on human TLR7 it was over 50000 nM; at human TLR8 it was over 50000 nM.
Regarding `CCn1c(-c2ccc(OC)c(OC)c2)nc2cc(C3CCN(C4CCN(C(C)C)CC4)CC3)ccc21` (single isomer, unassigned) [Example 9, 2-(3,4-dimethoxyphenyl)-1-ethyl-5-(1′-isopropyl-[1,4′-bipiperidin]-4-yl)-1H-benzo[d]imidazole], the IC50 on human TLR9 (setting [1]) came to 250 nM; on human TLR9 (setting [2]), 249 nM; on human TLR7, 2700 nM; on human TLR8 it was 1300 nM.
For `CCn1c(-c2ccc(OC)c(OC)c2)nc2ccc(C3CCN(C4CCN(CC(C)C)CC4)CC3)cc21` [Example 40, 2-(3,4-dimethoxyphenyl)-1-ethyl-6-(1′-isobutyl-[1,4′-bipiperidin]-4-yl)-1H-benzo[d]imidazole], the 50% inhibitory concentration (IC50) was 150 nM at human TLR9 (setting [1]), 149 nM on human TLR9 (setting [2]), 2300 nM on human TLR7 and 46000 nM on human TLR8.
For the compound `Cn1c(-c2ccc(S(C)(=O)=O)cc2)nc2cc(C3CCN(C4CC5CCC(C4)N5C4CCOCC4)CC3)c(F)cc21` (single isomer, unassigned) [Example 255, 6-fluoro-1-methyl-2-(4-(methylsulfonyl)phenyl)-5-(1-(8-(tetrahydro-2H-pyran-4-yl)-8-azabicyclo[3.2.1]octan-3-yl)piperidin-4-yl)-1H-benzo[d]imidazole], the IC50 at human TLR9 is 72 nM; at human TLR9 (setting [2]) it was 72 nM; at human TLR7, over 50000 nM; at human TLR8, over 50000 nM.
